Key:
[1] = Weight gain test (in vivo); settings: ob/ob mice; for Weight gain: Example 8 10 mg/kg, rosiglitazone 3 mg/kg, days 1-25
Procedure: (§1) A test compound (the compound of Example 8, n=8) was given orally to 5- to 6-week-old ob/ob mice (C57b1/6ob/ob female mice) at a dose of 10 mg/kg for 1-25 days, then a test compound (the compound of Example 8) was given at 20 mg/kg for 26-33 days. An oral load test of 2 g/kg of glucose was carried out while the mice were fasted, and the blood glucose concentration was measured at −30, 0, 30, 60, 90, 120, and 180 minutes. For comparison, 3 mg/kg of rosiglitazone (n=8) were given for 1-25 days, then 3 mg/kg of rosiglitazone were given for 26-33 days, and the blood glucose concentration was measured in the same manner. Table 7 indicates the results.
The body weight of mice was measured when 10 mg/kg of the same test compound (the compound of Example 8) were given for 1-25 days, and 3 mg/kg of rosiglitazone were given for 1-25 days. Table 8 indicates the results.

[2] = biological target: T1, human nuclear receptor PPARγ (Homo sapiens, UniProt P37231); experiment: PPAR agonist activity measurement test (cell-free FRET cofactor assay), PPARγ; assay type: biochemical
T1 sequence (P37231 238-503 limits assumed): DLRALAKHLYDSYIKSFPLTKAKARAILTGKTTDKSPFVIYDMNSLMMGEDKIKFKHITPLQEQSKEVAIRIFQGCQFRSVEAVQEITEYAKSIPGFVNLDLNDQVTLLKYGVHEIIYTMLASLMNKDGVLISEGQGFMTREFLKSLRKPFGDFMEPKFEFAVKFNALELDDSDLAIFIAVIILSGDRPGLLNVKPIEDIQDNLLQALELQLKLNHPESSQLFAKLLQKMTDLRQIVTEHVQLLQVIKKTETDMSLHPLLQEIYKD
Procedure: (§2) Agonist activity to the human nuclear receptors PPARα, β, and γ was measured using a biochemical fluorescent resonance energy transfer (FRET) assay system, which is a cell-free assay system, following a method described in the literature (for example, J. Biol. Chem., vol. 281 (8), pages 4920-4930 (2006)).
(§3) Specifically, after an N-terminal biotin-labeled peptide having cofactor peptide SRC1 (amino acid sequence 676-700), which includes the nuclear receptor bonding LXXLL motif region, and the fluorescent fusion proteins of the PPAR ligand binding domain were allowed to stand at room temperature for one hour, the energy transfer between the fluorescence donor and the fluorescence acceptor was measured to detect the test compound dose reaction to the cofactor.
(§4) A Perkin-Elmer Envision Multilabel Plate Reader was used for measurement. During measurement, 320 nm was used as the excitation wavelength, and 615 nm and 665 nm were used as the emission wavelengths. The test compound was dissolved in DMSO (dimethylsulfoxide) to a final solution concentration of 1%.

[3] = tested on: ob/ob mice (C57b1/6ob/ob female mice); experiment: Glucose tolerance test (in vivo); settings: for Glucose concentration: fasted ob/ob mice, oral load 2 g/kg glucose, Example 8 oral 10 mg/kg days 1-25 then 20 mg/kg days 26-33, rosiglitazone 3 mg/kg, n=8
Procedure: as §1

[4] = biological target: T2, human nuclear receptor PPARβ (Homo sapiens, UniProt Q03181); experiment: PPAR agonist activity measurement test (cell-free FRET cofactor assay), PPARβ; assay type: biochemical; settings: result in words
T2 sequence (Q03181 211-439 limits assumed): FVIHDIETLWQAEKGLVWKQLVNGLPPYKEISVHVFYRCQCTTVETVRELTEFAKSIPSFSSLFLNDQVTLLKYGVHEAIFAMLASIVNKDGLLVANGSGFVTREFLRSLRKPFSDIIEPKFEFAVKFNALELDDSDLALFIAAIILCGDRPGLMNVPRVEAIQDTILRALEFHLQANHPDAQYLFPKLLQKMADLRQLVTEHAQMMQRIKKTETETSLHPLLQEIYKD
Procedure: as §2, §3, §4

[5] = biological target: T3, human nuclear receptor PPARα (Homo sapiens, UniProt Q07869); experiment: PPAR agonist activity measurement test (cell-free FRET cofactor assay), PPARα; assay type: biochemical; settings: result in words
T3 sequence (Q07869 239-466 limits assumed): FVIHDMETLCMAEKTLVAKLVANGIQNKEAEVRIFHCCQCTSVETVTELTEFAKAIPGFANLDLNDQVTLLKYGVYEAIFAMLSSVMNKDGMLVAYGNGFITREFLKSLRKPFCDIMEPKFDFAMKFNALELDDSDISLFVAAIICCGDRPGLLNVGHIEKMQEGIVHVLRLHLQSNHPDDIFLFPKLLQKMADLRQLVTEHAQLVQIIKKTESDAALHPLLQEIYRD
Procedure: as §2, §3, §4

[6] = biological target: T4, human recombinant (CHO cell) AT1 receptor (Homo sapiens, UniProt P30556); experiment: Angiotensin II inhibition test (radioligand binding to AT1 receptor); settings: test compound concentration 10^−9 M; radioactive iodine-labeled angiotensin II, 37° C., sixty minutes; read-out: Inhibition rate (%)
T4 construct: expressed in transfected cells; host or cells: CHO cells
T4 sequence (P30556 1-359): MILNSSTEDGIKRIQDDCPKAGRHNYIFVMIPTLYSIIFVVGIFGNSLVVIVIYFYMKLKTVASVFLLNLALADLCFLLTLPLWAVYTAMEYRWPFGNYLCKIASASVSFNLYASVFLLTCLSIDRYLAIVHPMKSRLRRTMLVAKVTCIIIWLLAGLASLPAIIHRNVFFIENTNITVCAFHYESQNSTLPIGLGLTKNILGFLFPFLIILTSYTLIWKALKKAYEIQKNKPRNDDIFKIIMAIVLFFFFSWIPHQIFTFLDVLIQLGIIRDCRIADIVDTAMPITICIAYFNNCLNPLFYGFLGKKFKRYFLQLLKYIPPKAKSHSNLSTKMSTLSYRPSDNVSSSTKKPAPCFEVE
Procedure: A test of inhibition of angiotensin II to human recombinant (CHO cell) AT1 receptor following a method described in the literature (for example, Regul. Pept., vol. 44 (2), page 131 (1993)) was used to measure inhibitory activity to a test compound.
The ligand used was 10^−9 M of a test compound dissolved in 1% DMSO (dimethylsulfoxide). This was reacted with radioactive iodine-labeled angiotensin II at 37° C. for sixty minutes. Taking the inhibition rate of angiotensin II at 10 μM as nonspecific binding, the specific binding rate was calculated by subtracting this nonspecific portion. Table 6 indicates the results (the inhibition rate at test compound concentration: 10^−9 M)

| activity against PPARγ ([2]; FRET agonist assay, result in words) | EC50 ([2]; FRET, cofactor peptide SRC1, twelve concentrations 50 μM to 0 nM, 1% DMSO, read-out: ED50 (the source's name)) [nM] | activity against PPARβ [4] | activity against PPARα [5] | Structure (SMILES) | Weight gain ([1]; day 0) [g] | Weight gain ([1]; day 4) [g] | Weight gain ([1]; day 11) [g] | Weight gain ([1]; day 14) [g] | Weight gain ([1]; day 18) [g] | Weight gain ([1]; day 24) [g] | weight gain compared to the control ([1]; 10 mg/kg days 1-25, result in words) | weight gain compared to rosiglitazone ([1]; 10 mg/kg days 1-25 vs rosiglitazone 3 mg/kg, result in words) | Glucose concentration ([3]; 0 min) [mmol/L] | Glucose concentration ([3]; 30 min) [mmol/L] | Glucose concentration ([3]; 60 min) [mmol/L] | Glucose concentration ([3]; 120 min) [mmol/L] | Glucose concentration ([3]; 180 min) [mmol/L] | increase in blood glucose concentration compared to the control ([3]; ob/ob mice, oral glucose load 2 g/kg, result in words) | Glucose concentration ([3]; −30 min) [mmol/L] | inhibition at 0.001 µM [6] [%] |
| --- | --- | --- | --- | --- | --- | --- | --- | --- | --- | --- | --- | --- | --- | --- | --- | --- | --- | --- | --- | --- |
| exhibited activity only against PPARy | 114 | did not exhibit activity | did not exhibit activity | CCCc1nc(CSc2ccc(Oc3ccc4nc(COc5ccc(CC6SC(=O)NC6=O)cc5)n(C)c4c3)cc2)c(C(=O)OCC)n1Cc1ccc(-c2ccccc2-c2nnn[nH]2)cc1 (stereo not drawn) [Example 8, 4-[4-{2-[4-(2,4-dioxothiazolidin-5-ylmethyl)phenoxymethyl]-1-methyl-1H-benzimidazol-6-yloxy}phenylthiomethyl]-2-propyl-1-[2′-(1H-tetrazol-5-yl)biphenyl-4-ylmethyl]-1H-imidazole-5-carboxylic acid ethyl ester] | 0 | 0.8 ± 0.0 | 3.3 ± 0.2 | 4.2 ± 0.3 | 5.9 ± 0.3 | 6.8 ± 0.2 | nearly comparable weight gain to the control | significantly inhibited weight gain compared to rosiglitazone | 6.4 ± 0.6 | 12.5 ± 0.9 | 7.3 ± 0.9 | 5.5 ± 0.6 | 6.1 ± 0.6 | significantly inhibited increase in blood glucose concentration compared to the control | 7.6 ± 0.9 | 73 |
|  |  |  |  | CCCc1nc(CSc2ccc3nc(COc4ccc(CN(CC(=O)O)C(=O)Oc5ccccc5)cc4)n(C)c3c2)c(C(=O)OCC)n1Cc1ccc(-c2ccccc2-c2nnn[nH]2)cc1 [Example 36, N-[4-{6-[5-ethoxycarbonyl-1-{2′-(1H-tetrazol-5-yl)biphenyl-4-ylmethyl}-2-propyl-1H-imidazol-4-ylmethylthio]-1-methyl-1H-benzimidazol-2-ylmethoxy}phenylmethyl]-N-phenyloxycarbonylaminoacetic acid] |  |  |  |  |  |  |  |  |  |  |  |  |  |  |  | 83 |
|  |  |  |  | CN(CCOc1ccc(CC2SC(=O)NC2=O)cc1)c1ccccn1 (stereo not drawn) [Rosiglitazone, rosiglitazone, reference compound] | 0 | 1.2 ± 0.1 | 4.5 ± 0.3 | 5.8 ± 0.1 | 7.5 ± 0.2 | 8.9 ± 0.2 |  |  | 4.6 ± 0.3 | 12.5 ± 0.9 | 4.9 ± 0.3 | 4.6 ± 0.1 | 4.6 ± 0.1 |  | 4.6 ± 0.3 |  |
